PMC6838110 (Nature Communications, 2019)

Tests used:
[1] = tested on: A549 cells; test: Colony formation assay with ionizing radiation; format: cell-based, human
Experimental: page 32: […] Plates were then washed 2x with PBS, incubated with 20 µL of antibody solution containing […] incubated at RT for 2 hours. Plates were washed 3x with PBS before imaging on the CV7000 high-content imaging platform (Yokogawa). Following image acquisition, images were exported to the ColumbusTM image data storage and analysis system (Perkin Elmer). Optimized image algorithms were used to evaluate phenotypic response s using nuclear staining with Hoechst (cell cycle, micronuclei, nuclear fragmentation ), as well as to quantify the response of DNA damage response markers (foci numbers and total signal […] SDS-PAGE and Western blotting of samples Protein lysates were generated by scraping cells in radioimmunoprecipitation assay […] and protease and phosphatase inhibitor tablets (Roche) following compound treatments at indicated time points. Protein concentration was determined using the BCA protein assay kit (ThermoFisher). Proteins were separated by SDS -PAGE on NuPAGE® 4-12% […] membranes using the iBlot ® dry blotting system (ThermoFisher). Membranes were […] and incubated with primary antibody overnight at 4°C. Membranes were then washed with TBS-T and incubated with HRP-conjugated anti-rabbit or anti-mouse antibodies for 1 hour at RT. Proteins were detected by incubating membranes with SuperSignalTM Dura extended-duration substrate (ThermoFisher) and visualiz ed using the G:BOX ChemiGenius imaging system (Syngene). Band intensities were quantified using Syngene Genetools software. For analysis o f in vivo samples, a two-sided t-test was performed on logged data assuming unequal variance. A list of all antibodies used in this study can be found in Supplementary Table 5. Colony formation assay Cells were plated at low density into six-well plates in 3 mL medium (500 cells for A549, NCI-H1299 and FaDu WT, 4000 cells for FaDu ATM […]) and incubated overnight. Cell plating numbers were adjusted for higher IR doses to compensate for cell kill. […] Cell colonies were washed with […] acetic acid for >10 minutes. Excess stain was removed by washing with water. Surviving colonies (>50 cells) were counted using the GelCountTM colony counter (Oxford Optronix). Mean surviving colonies were calculated from three technical replicates. […] fraction. […] 33

[2] = tested on: BT474 breast cancer xenografts; test: Xenograft efficacy study with liposomal doxorubicin; format: in vivo, mice; details: AZD7648 37.5 mg kg−1 bid × 28 days, single agent
Experimental: (§1) Immunocompromised SCID (C.B-17/IcrHan®Hsd-Prkdc^scid) or Hsd:Athymic Nude-Foxn1^nu female mice (Envigo) were used for tumour implantation. […] When dosed twice daily, the time between the morning and evening doses was 8 h. Targeted irradiation of 2 Gy was delivered over 2 min daily over the first 5 days of treatment. Liposomal doxorubicin (Doxoves) was diluted in physiological saline and intravenously dosed at 2.5 or 5 mg kg^−1 once per week. Olaparib was formulated in 10% DMSO/30% Kleptose and orally dosed at 100 mg kg^−1 once daily. […] Statistical significance was evaluated using a one-tailed t-test. All in vivo studies complied with all relevant ethical regulations for animal testing and research, followed AstraZeneca’s global bioethics policy and received ethical approval from the AstraZeneca ethical committee. HBCx-17 PDX study was carried out at XenTech, France in accordance with French regulatory legislation concerning the protection of laboratory animals. CTG-703, CTG-0828 and CTG-0149 PDX studies were carried out at Champions Oncology, Inc., USA in accordance to the guidelines of the Institutional Animal Care and Use Committee (IACUC) of Champions Oncology and the USA regulatory legislation. […]
Tumours were measured (length x width) by bilateral Vernier calliper measurements and tumour volume calculated using Mousetrap software. […]

[3] = tested on: A549 xenografts; test: Xenograft efficacy study with fractionated IR; format: in vivo, mice
Experimental: as §1, with “legislation. CDX and OV2022 PDX studies were conducted in the UK in accordance with UK Home Office legislation, the Animal Scientific Procedures Act 1986 and the Home Office project licences 70/8839, 70/8894 and P0EC1FFDF.” for “legislation.”
(§2) Tumours were measured (length x width) by bilateral Vernier calliper measurements and tumour volume calculated using Mousetrap software. Mice were randomized into […]
(§3) treatment groups when mean tumour volume reached ~0.2 cm 3. AZD7648 was formulated in 0.5% hydroxypropyl methylcellulose (HPMC)/0.1% Tween80 (HPMC/T) and orally dosed (4–100 mg/kg). When dosed twice daily (bid), the time between the morning and evening doses was 8 hours. Targeted irradiation of 2 Gy was delivered over 2 minutes daily over the first 5 days of treatment. Liposomal doxorubicin (Doxoves) was diluted in physiological saline and intravenously dosed at 2.5 or 5 mg/kg once per week. Olaparib was formulated in 10% DMSO/30% Kleptose and orally dosed at 100 mg/kg once daily.
(§4) HPMC/T. Tumour growth inhibition from start of treatment was assessed by co mparison of the mean change in tumour volume for the control and treated groups, using the Mousetrap application and represented as tumour growth inhibition (TGI). Statistical significance was evaluated using a one-tailed t-test. […]
(§5) was prepared using an appropriate dilution factor and compared against an 11-point standard calibration curve (1–10,000 nM) prepared in DMSO and spiked into bl ank plasma. […] Supernatant (50 µL) was then diluted in 300 µL water and analysed with ultra-performance liquid chromatography–tandem mass […]

[4] = tested on: NCI-H1299 xenografts; test: Xenograft efficacy study with fractionated IR; format: in vivo, mice
Experimental: as §1, with “legislation. CDX and OV2022 PDX studies were conducted in the UK in accordance with UK Home Office legislation, the Animal Scientific Procedures Act 1986 and the Home Office project licences 70/8839, 70/8894 and P0EC1FFDF.” for “legislation.”
as §2, §3, §4, §5

With Cc1cc2ncnn2cc1Nc1ncc2c(n1)n(C1CCOCC1)c(=O)n2C [AZD7648] the “DEF37 Mean” value ([1]; AZD7648 0.025 μM + IR) was 1.2, the “DEF37 n1” value ([1]; AZD7648 0.025 μM + IR) was 1.3 and the “DEF37 n2” value ([1]; AZD7648 0.025 μM + IR) was 1.2. For the same molecule, the “DEF37 Mean” value ([1]; AZD7648 0.1 μM + IR) was 1.7, the “DEF37 n1” value ([1]; AZD7648 0.1 μM + IR) was 1.4 and the “DEF37 n2” value ([1]; AZD7648 0.1 μM + IR) was 1.9. The “Mean DEF37” value ([1]; AZD7648 1 μM + IR (Fig. 1e)) was 5.1, the “DEF37 Mean” value ([1]; AZD7648 1.21 μM + IR) was 5.1 and the “DEF37 n1” value ([1]; AZD7648 1.21 μM + IR) was 3.2. For the same molecule, the “DEF37 n2” value ([1]; AZD7648 1.21 μM + IR) was 7.0, the TGI [2] was 20% and the “tumour growth inhibition (TGI)” value ([3]; AZD7648 100 mg kg−1 qd oral + IR 2 Gy for five consecutive days) was 90%. For the same molecule, the “tumour response to single-agent treatment” value ([3]; AZD7648 100 mg kg−1 qd oral, single agent) was “insensitive”, the tumour regression ([4]; AZD7648 50 mg kg−1 qd × 21 days + IR 2 Gy qd × 5 days) was 55% and the tumour regression ([4]; AZD7648 100 mg kg−1 qd × 21 days + IR 2 Gy qd × 5 days) was 85%.
